Values of other authors as cited in patent US10806792B2 (Mayne Pharma International Pty Ltd., priority 2012, dated 2020).
Read-outs that look alike come from different tables or passages of the source.

Tests used:
[1] = tested on: typical infecting organisms for specific superficial and systemic mycoses; details: for MIC RANGE: in µg/mL

CCC(C)n1ncn(-c2ccc(N3CCN(c4ccc(OCC5COC(Cn6cncn6)(c6ccc(Cl)cc6Cl)O5)cc4)CC3)cc2)c1=O (stereo not drawn) [itraconazole]
MIC90 = 16: MIC90 ([1]; C. glabrata, Candidiasis)
0.016-2: MIC RANGE ([1]; C. parapsilosis, Candidiasis)
50-70%: reduction of Cmax and AUC in the fasting state vs after a light meal (in vivo)
0.008-8: MIC RANGE ([1]; C. albicans, Candidiasis) | MIC RANGE ([1]; C. kruset, Candidiasis)
0.01-4: MIC RANGE ([1]; Microsporum sp. (audounti, canis, gypseum, ferrugineum et al.), tinea capitis) | MIC RANGE ([1]; Microsporum sp. (canis, et al.), tinea cruris) | MIC RANGE ([1]; Microsporum sp. (canis, et al.), tinea unguium) | MIC RANGE ([1]; Microsporum sp. (canis, gypseum, et al.), tinea corporis) | MIC RANGE ([1]; Microsporum sp. (canis, gypseum, et al.), tinea pedis)
0.01-8: MIC RANGE ([1]; Epidermophyton floccosum, tinea corporis) | MIC RANGE ([1]; Epidermophyton floccosum, tinea cruris) | MIC RANGE ([1]; Epidermophyton floccosum, tinea manuum) | MIC RANGE ([1]; Epidermophyton floccosum, tinea pedis) | MIC RANGE ([1]; Epidermophyton floccosum, tinea unguium) | MIC RANGE ([1]; Trichophyton sp. (rubrum, interdigitale, mentagrophytes.), tinea manuum) | MIC RANGE ([1]; Trichophyton sp. (rubrum, tonsurans interdigitale, mentagrophytes, concentricim, violaceum et al.), tinea corporis) | MIC RANGE ([1]; Trichophyton sp. (rubrum, tonsurans interdigitale, mentagrophytes, et al.), tinea cruris) | MIC RANGE ([1]; Trichophyton sp. (rubrum, tonsurans interdigitale, mentagrophytes, et al.), tinea pedis) | MIC RANGE ([1]; Trichophyton sp. (rubrum, tonsurans interdigitale, mentagrophytes, et al.), tinea unguium) | MIC RANGE ([1]; Trichophyton sp. (tonsurans violaceum, soudanese, schoenleinii, mentagrophytes, verrucossum, et al.), tinea capitis)
approximately 55%: absolute oral bioavailability (100 mg dose of itraconazole oral solution)
0.03-8: MIC RANGE ([1]; A. flavus complex, Aspergillosis) | MIC RANGE ([1]; A. nidulans complex, Aspergillosis) | MIC RANGE ([1]; A. niger complex, Aspergillosis) | MIC RANGE ([1]; C. tropicalis, Candidiasis)
0.03-1: MIC RANGE ([1]; A. terreus complex, Aspergillosis)
